Values of other authors as cited in US20030207846A1, “Treatment of pain, inflammation, and inflammation-related disorders with a combination of a cyclooxygenase-2 selective inhibitor and aspirin” (Pharmacia Corporation, priority 2002, published 2003).

Experiments:
[1] = system: platelet aggregation and ex-vivo serum-generated thromboxane B2 production; conditions: healthy human subjects
upper GI tract = conditions: low-dose 75-300 mg/day

Structure (SMILES)	tolerability ([1]; alone or in combination with the aspirin)	effect on the anti-platelet effects of aspirin (inhibition of platelet aggregation and ex-vivo serum-generated thromboxane B2 production) ([1]; rofecoxib 50 mg/day with aspirin 81 mg/day)	inhibition of platelet function (platelet function; 40 mg, conditions of limited compliance)	efficacy as an antiplatelet agent (platelet function; 100-300 mg/day, plain or slow release form)	risk of upper GI tract complications (upper GI tract)
CS(=O)(=O)c1ccc(C2=C(c3ccccc3)C(=O)OC2)cc1 [rofecoxib]	well-tolerated	did not alter the anti-platelet effects of the aspirin			
CC(=O)Oc1ccccc1C(=O)O [aspirin, 2-(acetyloxy)benzoic acid]			not sufficient to inhibit platelet function	very effective	increased the risk of upper GI tract complications
